# Reference: patent US20210085640A1, “ACYLATED CATECHIN POLYPHENOLS AND METHODS OF THEIR USE FOR THE TREATMENT OF CANCER” (Flagship Pioneering Innovations V, Inc., priority 2018, published 2021)
# Tests used:
# [1] = Stability in Simulated Gastric Fluid (SGF); type: in vitro ADME; conditions: SGF pH 1.6 with pepsin, 1 μM, 37° C.
# Procedure, shortened: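 Compound at 1 μM (from 1 mM DMSO stock) incubated at 37 °C in SGF, pH 1.6 NaCl/HCl buffer with FaSSIF powder and 0.1 mg/mL pepsin. Aliquots quenched with an equal volume of acetonitrile at T0 and regular intervals; degradation rate by LC/MS.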
# [2] = Fecal Incubation Stability; type: in vitro ADME; conditions: fecal slurry, anaerobic, 1 or 10 μM
# Experimental: Fecal Incubation Stability. This assay was used to assess the stability of an acylated active agent in a large intestine. All experiments were performed in an anaerobic chamber containing 90% nitrogen, 5% hydrogen and 5% carbon dioxide. Fecal matter in a slurry (15% VW is added to 96 well plates containing YCFA media or other suitable media (1.6 mL). Compounds were added to each individual well to reach a final analyte concentration of 1 or 10 μM, and the material was mixed by pipetting. At set time points a sample was removed, quenched with acetonitrile, and analyzed by LC/MS.
# naïve CD4^+ T cells = assay: Human Regulatory T Cell Differentiation Assay; type: cell-based; conditions: 6 days
# Experimental: (§1) Peripheral blood mononuclear cells (PBMCs) from whole blood donated by health volunteers were separated by Ficoll-Paque gradient centrifugation and naïve CD4^+ T cells were subsequently isolated using magnet beads (EasySep™ Human Naïve CD4^+ T Cell Isolation Kit, Cambridge, Mass.). For regulatory T cell (Treg) differentiation assay, naïve CD4^+ T cells were cultured (1-10×10^4 cells) in CTS OpTmizer medium for 6 days and stimulated with 5 ng/ml TGF-β, 100 U/ml IL-2, and ImmunoCult™ Human […] T Cell Activator; Stemcell #10990) with/without Compounds. Cell viability was determined using a viability dye (eBioscience Fixable Viability Dye eFluor 780: ThermoFisher 65-0865-14) at 1:500 dilution. The cells were gated for Treg, defined as Live, CD11c^−, CD14^−, CD19^−, CD8^−, CD4^+, CD3^+, CD25^+, FOXP3^+. Percent (%) Tregs were calculated as percentage of CD4^+, CD25^+, FOXP3^+ cells over total CD4^+ T cells. Statistical analysis was performed with GraphPad Prism Software Using One-Way ANOVA.
# [3] = Human Regulatory T Cell Differentiation Assay; type: cell-based; conditions: human, primary naïve CD4+ T cells isolated from PBMCs, 3 mM, read-out: Cell viability % DMSO
# Experimental: as §1
# A549 lung cancer cells = assay: Cancer cell survival (CellTiter-Glo), A549; type: cell-based; conditions: 72 h
# Procedure, shortened: (§2)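 Log-phase cells are plated at 4×10^3 per well and incubated overnight. Compounds, prepared in media as 10× solutions, are then added and the plates held 72 h at 37 C. Viability is measured by CellTiter-Glo luminescence, and IC50 is derived from survival relative to untreated controls.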
# T24 bladder cancer cells = assay: Cancer cell survival (CellTiter-Glo), T24; type: cell-based; conditions: 72 h
# Procedure, shortened: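 T24 cells seeded at 4×10^3 cells/well overnight, then exposed 72 h at 37 C, 5% CO2 to nine concentrations in triplicate. Survival measured by CellTiter-Glo luminescence relative to untreated and medium controls; IC50 derived.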
# [4] = system: HCT 116 colorectal cancer cells; assay: Cancer cell survival (CellTiter-Glo), HCT 116; type: cell-based; conditions: HCT 116 cells, 72 h
# Procedure, shortened: as §2
# [5] = system: PC-3 prostate cancer cells; assay: Cancer cell survival (CellTiter-Glo), PC-3; type: cell-based; conditions: PC-3 cells, 72 h
# Procedure, shortened: as §2
# MCF7 breast cancer cells = assay: Cancer cell survival (CellTiter-Glo), MCF7; type: cell-based; conditions: 72 h
# Procedure, shortened: as §2
# A-431 skin cancer cells = assay: Cancer cell survival (CellTiter-Glo), A-431; type: cell-based; set-up: Cell survival at given concentration: unit not given here; conditions: A-431 cells, 72 h
# Procedure, shortened: as §2
# [6] = system: Daudi lymphoma cancer cells; assay: Cancer cell survival (CellTiter-Glo), Daudi; type: cell-based; conditions: 72 h
# Procedure, shortened: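 Daudi cells (4×10^3/well) were exposed for 72 h at 37 °C to nine concentrations of compound, added as 10× solutions spanning 1 μM–10 mM (fatty acids) or 100 nM–1 mM (others). CellTiter-Glo luminescence gave % survival versus untreated, medium-blank corrected; IC50 derived.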
# AGS stomach cancer cells = assay: Cancer cell survival (CellTiter-Glo), AGS; type: cell-based; set-up: Cell survival at given concentration: unit not given here
# Procedure, shortened: as §2
smiles,measurement,setting,value
"CCCC(=O)O[C@H](C)CC(=O)Oc1ccc(/C=C/c2cc(OC(=O)C[C@@H](C)OC(=O)CCC)cc(OC(=O)C[C@@H](C)OC(=O)CCC)c2)cc1 [Compound 16, [4-[(E)-2-[3,5-bis[[(3R)-3-butanoyloxybutanoyl]oxy]phenyl]vinyl]phenyl] (3R)-3-butanoyloxy-butanoate]",Assay 1 (SGF) (% Remaining @ 1 hours),[1],C (>75% of the tested compound remaining)
same,Assay 3 (% Remaining at 24 h),[2],A (<25% of the tested compound remaining)
CCC(=O)O [Propionic acid],activity at 3000 µM,"naïve CD4^+ T cells; Homo sapiens, CD4+ T, 144 h, 3 mM, read-out: Treg induction % DMSO",> 130%
same,"viability at 6 days, 3 mM",[3],90 to 110%
"O=C(O[C@@H]1Cc2c(O)cc(O)cc2O[C@@H]1c1cc(O)c(O)c(O)c1)c1cc(O)c(O)c(O)c1 [EGCG, epigallocatechin gallate]",Cell survival at given concentration,A549 lung cancer cells; 101 nM,1.02
same,Cell survival at given concentration,A549 lung cancer cells; 318 nM,1.05
same,Cell survival at given concentration,A549 lung cancer cells; 1 μM,1.03
same,Cell survival at given concentration,A549 lung cancer cells; 3 μM,1.04
same,Cell survival at given concentration,A549 lung cancer cells; 10 μM,0.99
same,Cell survival at given concentration,A549 lung cancer cells; 32 μM,0.77
same,Cell survival at given concentration,A549 lung cancer cells; 100 μM,0.33
same,Cell survival at given concentration,A549 lung cancer cells; 316 μM,0.21
same,Cell survival at given concentration,A549 lung cancer cells; 1000 μM,0.01
same,IC50,A549 lung cancer cells; Table 7.1,67.4 µM
same,Cell survival at given concentration,T24 bladder cancer cells; 101 nM,1.00
same,Cell survival at given concentration,T24 bladder cancer cells; 318 nM,0.97
same,Cell survival at given concentration,T24 bladder cancer cells; 1 μM,1.02
same,Cell survival at given concentration,T24 bladder cancer cells; 3 μM,1.01
same,Cell survival at given concentration,T24 bladder cancer cells; 10 μM,0.96
same,Cell survival at given concentration,T24 bladder cancer cells; 32 μM,0.58
same,Cell survival at given concentration,T24 bladder cancer cells; 100 μM,0.15
same,Cell survival at given concentration,T24 bladder cancer cells; 316 μM,0.03
same,Cell survival at given concentration,T24 bladder cancer cells; 1000 μM,0.03
same,IC50,"T24 bladder cancer cells; Table 3.1, read-out: 1050",37.8 µM
same,Cell survival at given concentration,[4]; 101 nM,1.05
same,Cell survival at given concentration,[4]; 318 nM,0.98
same,Cell survival at given concentration,[4]; 1 μM,1.00
same,Cell survival at given concentration,[4]; 3 μM,1.03
same,Cell survival at given concentration,[4]; 10 μM,1.00
same,Cell survival at given concentration,[4]; 32 μM,0.61
same,Cell survival at given concentration,[4]; 100 μM,0.25
same,Cell survival at given concentration,[4]; 316 μM,0.06
same,Cell survival at given concentration,[4]; 1000 μM,0.00
same,IC50,[4]; Table 6.1,46.3 µM
same,Cell survival at given concentration,[5]; 101 nM,1.01
same,Cell survival at given concentration,[5]; 318 nM,0.99
same,Cell survival at given concentration,[5]; 1 μM,1.01
same,Cell survival at given concentration,[5]; 3 μM,0.97
same,Cell survival at given concentration,[5]; 10 μM,0.99
same,Cell survival at given concentration,[5]; 32 μM,0.82
same,Cell survival at given concentration,[5]; 100 μM,0.60
same,Cell survival at given concentration,[5]; 316 μM,0.51
same,Cell survival at given concentration,[5]; 1000 μM,0.10
same,IC50,[5]; Table 8.1,245 µM
same,Cell viability % DMSO,naïve CD4^+ T cells; 100 nM,= (90% ≥ ≤110%: =)
same,Treg induction % DMSO,naïve CD4^+ T cells; 100 nM,= (90% ≥ ≤110%: =)
same,Cell viability % DMSO,naïve CD4^+ T cells; 1 uM,= (90% ≥ ≤110%: =)
same,Treg induction % DMSO,naïve CD4^+ T cells; 1 uM,= (90% ≥ ≤110%: =)
same,Cell survival at given concentration,MCF7 breast cancer cells; 101 nM,1.01
same,Cell survival at given concentration,MCF7 breast cancer cells; 318 nM,0.99
same,Cell survival at given concentration,MCF7 breast cancer cells; 1 μM,0.99
same,Cell survival at given concentration,MCF7 breast cancer cells; 3 μM,0.97
same,Cell survival at given concentration,MCF7 breast cancer cells; 10 μM,0.96
same,Cell survival at given concentration,MCF7 breast cancer cells; 32 μM,0.77
same,Cell survival at given concentration,MCF7 breast cancer cells; 100 μM,0.55
same,Cell survival at given concentration,MCF7 breast cancer cells; 316 μM,0.51
same,Cell survival at given concentration,MCF7 breast cancer cells; 1000 μM,0.11
same,IC50,MCF7 breast cancer cells; Table 5.1,231 µM
same,Cell survival at given concentration,A-431 skin cancer cells; 101 nM,1.02
same,Cell survival at given concentration,A-431 skin cancer cells; 318 nM,1.02
same,Cell survival at given concentration,A-431 skin cancer cells; 1 μM,1.02
same,Cell survival at given concentration,A-431 skin cancer cells; 3 μM,1.01
same,Cell survival at given concentration,A-431 skin cancer cells; 10 μM,1.04
same,Cell survival at given concentration,A-431 skin cancer cells; 32 μM,0.78
same,Cell survival at given concentration,A-431 skin cancer cells; 100 μM,0.38
same,Cell survival at given concentration,A-431 skin cancer cells; 316 μM,0.30
same,Cell survival at given concentration,A-431 skin cancer cells; 1000 μM,0.04
same,IC50,A-431 skin cancer cells; Table 9.1,81.9 µM
same,Cell survival at given concentration,[6]; 101 nM,1.03
same,Cell survival at given concentration,[6]; 318 nM,1.02
same,Cell survival at given concentration,[6]; 1 μM,1.01
same,Cell survival at given concentration,[6]; 3 μM,0.97
same,Cell survival at given concentration,[6]; 10 μM,0.76
same,Cell survival at given concentration,[6]; 32 μM,0.31
same,Cell survival at given concentration,[6]; 100 μM,0.17
same,Cell survival at given concentration,[6]; 316 μM,0.00
same,Cell survival at given concentration,[6]; 1000 μM,0.00
same,IC50,[6]; Table 4.1,20.4 µM
same,Cell survival at given concentration,AGS stomach cancer cells; 101 nM,1.01
same,Cell survival at given concentration,AGS stomach cancer cells; 318 nM,1.02
same,Cell survival at given concentration,"AGS stomach cancer cells; 1 μM, Table 10.1",1.05
same,Cell survival at given concentration,"AGS stomach cancer cells; 3 μM, Table 10.1",1.02
same,Cell survival at given concentration,"AGS stomach cancer cells; 10 μM, Table 10.1",0.90
same,Cell survival at given concentration,"AGS stomach cancer cells; 32 μM, Table 10.1",0.49
same,Cell survival at given concentration,"AGS stomach cancer cells; 100 μM, Table 10.1",0.20
same,Cell survival at given concentration,AGS stomach cancer cells; 316 μM,0.08
same,Cell survival at given concentration,AGS stomach cancer cells; 1000 μM,0.00
same,IC50,AGS stomach cancer cells; Table 10.1,33.2 µM
